# Experimental data from US9926340B2, “NAD analogs and methods of using said NAD analogs in determining ribosylation of proteins with PARP mutants” (The Board of Regents of the University of Texas System, priority 2015, dated 2018).
# Entries after “also recorded” stand apart in the source; their conditions may differ.
# Legend:
# Test in all cases: Automodification reaction, ADP-ribose Western blot / in-gel fluorescence after click to azido-rhodamine
# Format in all cases: biochemical
# Conditions in all cases: FIG. 5I
# asPARP-3 (L394A) = target: T1, asPARP-3 (L394A) (Mus musculus, UniProt Q3ULW8, L399A)
# T1 construct: made in house; host or cells: Sf9 insect cells (baculovirus)
# T1 sequence (Q3ULW8 1-528 isoform Q3ULW8-2 L394A): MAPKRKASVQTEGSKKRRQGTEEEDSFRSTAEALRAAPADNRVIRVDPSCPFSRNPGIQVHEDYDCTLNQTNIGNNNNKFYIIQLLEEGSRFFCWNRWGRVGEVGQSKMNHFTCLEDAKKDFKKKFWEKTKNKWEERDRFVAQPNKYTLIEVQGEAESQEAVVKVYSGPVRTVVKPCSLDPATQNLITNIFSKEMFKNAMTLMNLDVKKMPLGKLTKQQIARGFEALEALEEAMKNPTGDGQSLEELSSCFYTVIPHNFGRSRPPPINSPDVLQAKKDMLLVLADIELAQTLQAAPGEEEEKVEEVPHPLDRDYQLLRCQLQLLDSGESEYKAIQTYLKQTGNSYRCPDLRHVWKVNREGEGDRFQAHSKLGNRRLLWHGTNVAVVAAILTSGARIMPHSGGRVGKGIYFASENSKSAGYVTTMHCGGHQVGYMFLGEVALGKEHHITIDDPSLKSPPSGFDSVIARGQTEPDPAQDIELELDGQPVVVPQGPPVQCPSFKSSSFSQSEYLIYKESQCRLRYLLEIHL
# Experimental: (§1) In vitro automodification reactions. 200 ng PARP Protein was incubated in Automodification Buffer (30 mM HEPES, pH 8.0, 5 mM MgCl2, 5 mM CaCl2, 0.01% NP-40, 1 mM DTT, 100 ng/mL sonicated salmon sperm DNA (Stratagene), 100 ng/mL BSA (SIGMA)) with NAD^+ or NAD^+ analogs as indicated at 25° C. for 5 (PARP-1 and PARP2) or 30 minutes (PARP3) for Sf9-purified proteins and for 45 minutes for bacterially purified enzymes.
# (§2) Reactions were stopped by addition of ⅓ reaction volume with 4×SDS-PAGE Loading Buffer (200 mM Tris, pH 6.8, 8% SDS, 40% Glycerol, 4% β-mercaptoethanol, 50 mM EDTA, 0.08% Bromophenol Blue) followed by boiling at 100° C. for 5 minutes. Reaction products in 1×SDS-PAGE buffer were then resolved on a 10% SDS-PAGE gel, transferred to a nitrocellulose membrane and blotted with a polyclonal antibody against PARP-1 or with an antibody-like detection reagent against ADP-ribose (MABE1016, Millipore). Relative quantitation of PARP-1 automodifications was performed by the ratio of PARylation-induced […] in SDS-PAGE mobility relative to un-shifted full length PARP-1 measured by densitometry of anti-PARP-1 western blots.
# (§3) Reactions were stopped by methanol:chloroform precipitation (Wessel and Flugge, 1984). The protein pellets were clicked to azido-Rhodamine (Click Chemistry Tools) in Denaturing CC Buffer (100 mM HEPES, pH 8, 4 M Urea, 0.5 M NaCl, 2% CHAPS, 10 μM azido-Rhodamine, 1 mM THPTA (Click Chemistry Tools), 5 mM CuSO4, 5 mM Sodium Ascorbate) with Azido-Rhodamine, THPTA:CuSO4 complex, and Sodium Ascorbate each added sequentially in written order. […]
# (§4) The automodification reactions were stopped by the addition of one third of a reaction volume of 4×SDS-PAGE Loading Buffer (200 mM Tris.HCl, pH 6.8, 8% SDS, 40% glycerol, 4% 3-mercaptoethanol, 50 mM EDTA, 0.08% bromophenol blue) followed by heating to 100° C. for 5 min. […] Relative quantification of PARP-1 automodification was performed using densitometry and was expressed as the ratio of the PARylation-induced decrease in PARP-1 mobility relative to non-shifted PARP-1. […]
# asPARP-1 (PARP-1 L877A) = target: T2, asPARP-1 (PARP-1 L877A) (Mus musculus, UniProt P11103, L876A)
# T2 construct: relative to un-shifted full length PARP-1 measured by densitometry of anti-PARP-1 western blots; made in house; host or cells: Sf9 insect cells (baculovirus)
# Experimental: as §1, §2, §3, §4
# asPARP-2 (L443A) = target: T3, asPARP-2 (L443A) (Homo sapiens, UniProt Q9UGN5, L443A)
# T3 construct: made in house; host or cells: Sf9 insect cells (baculovirus)
# Experimental: as §1, §2, §3, §4
# T3 sequence (Q9UGN5 whole entry L443A): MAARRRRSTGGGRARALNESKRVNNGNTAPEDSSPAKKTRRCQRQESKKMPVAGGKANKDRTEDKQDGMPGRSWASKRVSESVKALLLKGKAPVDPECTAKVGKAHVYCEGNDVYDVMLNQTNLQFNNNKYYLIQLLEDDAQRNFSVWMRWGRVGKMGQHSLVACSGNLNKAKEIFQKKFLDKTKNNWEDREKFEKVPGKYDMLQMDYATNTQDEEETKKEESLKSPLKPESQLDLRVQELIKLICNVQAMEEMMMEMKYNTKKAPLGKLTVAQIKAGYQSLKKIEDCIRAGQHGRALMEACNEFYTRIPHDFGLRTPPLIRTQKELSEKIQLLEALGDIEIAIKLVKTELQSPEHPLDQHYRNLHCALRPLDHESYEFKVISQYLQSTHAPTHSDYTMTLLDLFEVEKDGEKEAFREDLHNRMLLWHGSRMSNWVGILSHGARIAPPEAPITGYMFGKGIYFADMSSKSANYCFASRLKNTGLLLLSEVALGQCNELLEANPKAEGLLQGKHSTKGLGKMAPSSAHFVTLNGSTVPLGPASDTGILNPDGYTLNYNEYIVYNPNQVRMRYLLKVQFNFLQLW
# T2 sequence (P11103 whole entry L876A): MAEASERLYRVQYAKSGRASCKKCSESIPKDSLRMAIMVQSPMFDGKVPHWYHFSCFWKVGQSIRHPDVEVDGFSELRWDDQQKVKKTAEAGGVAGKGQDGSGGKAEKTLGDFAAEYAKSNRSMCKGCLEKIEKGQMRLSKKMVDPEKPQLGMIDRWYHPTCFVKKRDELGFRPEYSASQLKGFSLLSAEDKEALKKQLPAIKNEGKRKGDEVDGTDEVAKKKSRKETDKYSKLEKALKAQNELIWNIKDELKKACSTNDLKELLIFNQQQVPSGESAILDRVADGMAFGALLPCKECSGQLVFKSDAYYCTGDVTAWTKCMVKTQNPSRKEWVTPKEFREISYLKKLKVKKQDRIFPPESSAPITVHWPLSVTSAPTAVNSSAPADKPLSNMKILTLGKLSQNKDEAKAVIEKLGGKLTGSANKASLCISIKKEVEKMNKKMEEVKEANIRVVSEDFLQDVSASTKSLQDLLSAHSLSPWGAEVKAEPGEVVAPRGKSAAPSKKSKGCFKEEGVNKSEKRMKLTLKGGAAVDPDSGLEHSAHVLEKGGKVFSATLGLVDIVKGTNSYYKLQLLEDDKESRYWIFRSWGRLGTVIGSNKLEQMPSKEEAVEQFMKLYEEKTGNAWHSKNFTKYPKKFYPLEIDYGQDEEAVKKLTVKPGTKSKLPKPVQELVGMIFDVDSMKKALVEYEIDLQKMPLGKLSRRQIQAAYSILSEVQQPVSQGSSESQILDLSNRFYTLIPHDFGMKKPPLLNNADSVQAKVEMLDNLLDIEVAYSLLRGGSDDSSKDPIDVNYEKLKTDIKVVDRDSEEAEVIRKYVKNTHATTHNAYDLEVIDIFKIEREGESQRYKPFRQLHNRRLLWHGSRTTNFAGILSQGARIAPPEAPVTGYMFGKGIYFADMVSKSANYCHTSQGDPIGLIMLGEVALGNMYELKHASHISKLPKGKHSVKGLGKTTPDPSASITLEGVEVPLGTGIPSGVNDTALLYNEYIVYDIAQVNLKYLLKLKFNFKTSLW
structure (smiles),measurement,setting,value
C#CCCSc1nc2c(N)ncnc2n1[C@@H]1O[C@H](COP(=O)(O)OP(=O)(O)OC[C@H]2O[C@@H]([n+]3cccc(C(N)=O)c3)C(O)C2O)[C@H](O)C1O (stereo partly drawn) [8-Bu(3-yne)T-NAD^+],catalytic activity of asPARP-3 with the NAD analog,asPARP-3 (L394A),catalytically active; also recorded: supports activity
same,catalytic activity of asPARP-1 with the NAD analog,asPARP-1 (PARP-1 L877A),catalytically active
same,catalytic activity of asPARP-2 with the NAD analog,asPARP-2 (L443A),catalytically active; also recorded: supports activity
